Patent US20250206722A1, “SMALL MOLECULE INHIBITORS OF TEA DOMAIN FAMILY MEMBERS” (The Scripps Research Institute, priority 2022, published 2025)

Assays:
Assay type in all cases: cell-based
NCI-H226 cells [1] = experiment: NCI-H226 proliferation assay (in house); conditions: Homo sapiens, 120 h, 5 days, Cell TiterGlo, 20-point 1:2 dilution from 20 μM
How it was run: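 Cells in RPMI 1640 + 10% FBS, 500 per well, dosed after 24 h with 20-point 1:2 dilutions from 20 μM (final), in triplicate. After 5 days at 37 °C, 5% CO2, viability read by CellTiter-Glo luminescence.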

NCI-H226 cells [2] = experiment: NCI-H226 proliferation assay (Wuxi AppTec); conditions: Homo sapiens, 168 h, 7 days, CellTiter-Glo, top dose 10, 3-fold dilution, 9 doses
How it was run: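 NCI-H226 cells were seeded at 500 cells/well overnight, then treated with compounds in a 9-point, 3-fold dilution from a top dose of 10 μM, with 0.2% DMSO. Plates were incubated 7 days at 37° C, 5% CO2. Viability was read by CellTiter-Glo luminescence, normalized to DMSO (max) and medium-only (min) controls.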

[3] = test system: transcriptional activity of TEADs; experiment: TEAD reporter assay (MCF7 TEAD-LUC reporter cells); conditions: Homo sapiens, 24 hours, BrightGlo luminescence
How it was run: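 MCF7 TEAD-LUC reporter cells were plated at 5,000/well and after 24 h treated with a 20-point 1:2 series from 20 μM final, in triplicate. Luciferase was read by BrightGlo luminescence after 24 h exposure at 37 °C.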

IMR32 cells = experiment: IMR32 cytotoxicity assay; conditions: Homo sapiens, IMR-32, 72 h, 3 days, Cell TiterGlo
Method: IMR32 cells were obtained from American Type Culture Collection (ATCC, CCL-127) and cultured in DMEM (Corning, 10-013-CV) supplemented with 10% fetal bovine serum (Gibco, 10438-026) and 1% penicillin-streptomycin (Gibco, 15070063). Cells were trypsinized, resuspended in growth medium, and diluted to a concentrated of 20,000 cells/mL. 1,000 cells, 50 μL of cell suspension, per well were then plated in a white 384-well plate (Corning) and incubated at 37° C., 5% CO2. After 24 hours incubation, 100 nL of test compounds in DMSO, 20-point 1:2 dilution starting from 20 μM (final concentration) in triplicate, were transferred to each well using an Agilent Bravo instrument outfitted with a pintool head. Cells were incubated at 37° C., 5% CO2 for 3 days followed by the addition of 30 μL of Cell TiterGlo (Promega; diluted 1:6 in water) to each well and luminescence values recorded using an EnVision plate reader. […]

IC50 (NCI-H226 cells [1])	IC50 (NCI-H226 cells [2])	IC50 [3]	SMILES	IC50 (IMR32 cells)
0.007 µM	0.006 µM	2 nM	C=CC(=O)N1CCN(c2nccnc2Nc2ccc(OC(F)(F)F)cc2)CC1 [Example 34, 1-(4-(3-((4-(trifluoromethoxy)phenyl)amino)pyrazin-2-yl)piperazin-1-yl)prop-2-en-1-one]	> 10000 nM
0.023 µM		2.24 nM	C=CC(=O)N1CCN(c2ncccc2Nc2ccc(C(F)(F)F)cc2)CC1 [Example 134, 1-[4-(3-{[4-(trifluoromethyl)phenyl]amino}pyridin-2-yl)piperazin-1-yl]prop-2-en-1-one]	> 10000 nM
0.017 µM		5 nM	C=CC(=O)N1CCN(c2cccnc2Nc2ccc(C(F)(F)F)cc2)CC1 [Example 143, 1-[4-(2-{[4-(trifluoromethyl)phenyl]amino}pyridin-3-yl)piperazin-1-yl]prop-2-en-1-one]	20000 nM
0.108 µM		1000 nM	CN(C)C/C=C/C(=O)N1CCN(c2nccnc2Nc2ccc(C(F)(F)F)cc2)CC1 [Example 167, 4-(dimethylamino)-1-(4-(3-((4-(trifluoromethyl)phenyl)amino)pyrazin-2-yl)piperazin-1-yl)but-2-en-1-one]	10000 nM
> 10 µM		487 nM	CC(=O)N1CCN(c2nccnc2Nc2ccc(C(F)(F)F)cc2)CC1 [Example 168, 1-(4-(3-((4-(trifluoromethyl)phenyl)amino)pyrazin-2-yl)piperazin-1-yl)ethan-1-one]	> 20000 nM
0.037 µM		13.1 nM	O=C(C(F)Cl)N1CCN(c2nccnc2Nc2ccc(C(F)(F)F)cc2)CC1 (stereo not drawn) [Example 169, 2-chloro-2-fluoro-1-(4-(3-((4-(trifluoromethyl)phenyl)amino)pyrazin-2-yl)piperazin-1-yl)ethan-1-one]	> 10000 nM
0.173 µM		267 nM	O=C(CCl)N1CCN(c2nccnc2Nc2ccc(C(F)(F)F)cc2)CC1 [Example 170, 2-chloro-1-(4-(3-((4-(trifluoromethyl)phenyl)amino)pyrazin-2-yl)piperazin-1-yl)ethan-1-one]	760 nM
5.25 µM		2220 nM	N#CCC(=O)N1CCN(c2nccnc2Nc2ccc(C(F)(F)F)cc2)CC1 [Example 171, 3-oxo-3-(4-(3-((4-(trifluoromethyl)phenyl)amino)pyrazin-2-yl)piperazin-1-yl)propanenitrile]	> 20000 nM
1.4 µM		3.2 nM	O=C(C1CO1)N1CCN(c2nccnc2Nc2ccc(C(F)(F)F)cc2)CC1 (stereo not drawn) [Example 172, oxiran-2-yl(4-(3-((4-(trifluoromethyl)phenyl)amino)pyrazin-2-yl)piperazin-1-yl)methanone]	10000 nM
0.507 µM		36.5 nM	C#CC(=O)N1CCN(c2nccnc2Nc2ccc(C(F)(F)F)cc2)CC1 [Example 173, 1-(4-(3-((4-(trifluoromethyl)phenyl)amino)pyrazin-2-yl)piperazin-1-yl)prop-2-yn-1-one]	202 nM
> 20 µM		> 20000 nM	CC#CC(=O)N1CCN(c2nccnc2Nc2ccc(C(F)(F)F)cc2)CC1 [Example 174, 1-(4-(3-((4-(trifluoromethyl)phenyl)amino)pyrazin-2-yl)piperazin-1-yl)but-2-yn-1-one]	> 10000 nM
> 10 µM		833 nM	N#CCN1CCN(c2nccnc2Nc2ccc(C(F)(F)F)cc2)CC1 [Example 175, 2-(4-(3-((4-(trifluoromethyl)phenyl)amino)pyrazin-2-yl)piperazin-1-yl)acetonitrile]	> 20000 nM
2.48 µM		> 10000 nM	C#CCN(C)C/C=C/C(=O)N1CCN(c2nccnc2Nc2ccc(C(F)(F)F)cc2)CC1 [Example 179, (E)-4-(methyl(prop-2-yn-1-yl)amino)-1-(4-(3-((4-(trifluoromethyl)phenyl)amino)pyrazin-2-yl)piperazin-1-yl)but-2-en-1-one]	> 20000 nM
5.36 µM		2120 nM	C=C(CN1CCCC1)C(=O)N1CCN(c2nccnc2Nc2ccc(C(F)(F)F)cc2)CC1 [Example 189, 2-(pyrrolidin-1-ylmethyl)-1-(4-(3-((4-(trifluoromethyl)phenyl)amino)pyrazin-2-yl)piperazin-1-yl)prop-2-en-1-one]	9300 nM

Continued, compound first:

SMILES	IC50 (NCI-H226 cells [1])	IC50 (NCI-H226 cells [2])	IC50 [3]	IC50 (IMR32 cells)
C=CC(=O)N1CCC(c2nccnc2Nc2ccc(C(F)(F)F)cc2)CC1 [Example 26, 1-[4-(3-{[4-(trifluoromethyl)phenyl]amino}pyrazin-2-yl)piperidin-1-yl]prop-2-en-1-one]	0.009 µM	0.02 µM	2 nM	10000 nM
C=CC(=O)N1CCN(c2nccnc2Nc2ccc(S(F)(F)(F)(F)F)cc2)CC1 [Example 31, 1-(4-(3-((4-(pentafluoro-16-sulfaneyl)phenyl)amino)pyrazin-2-yl)piperazin-1-yl)prop-2-en-1-one]	0.0155 µM	0.018 µM	2.06 nM	> 5000 nM
C=CC(=O)N1CCN(c2nccnc2Nc2ncc(C(F)(F)F)cn2)CC1 [Example 41, 1-(4-(3-((5-(trifluoromethyl)pyrimidin-2-yl)amino)pyrazin-2-yl)piperazin-1-yl)prop-2-en-1-one]	0.198 µM		23 nM	> 20000 nM
C=CC(=O)N1CCN(c2nccnc2Nc2cnc(C(F)(F)F)nc2)CC1 [Example 52, 1-(4-(3-((2-(trifluoromethyl)pyrimidin-5-yl)amino)pyrazin-2-yl)piperazin-1-yl)prop-2-en-1-one]	0.128 µM		10.5 nM	> 20000 nM
C=CC(=O)N1CCN(c2nccnc2NC2CCC(F)(F)CC2)CC1 [Example 66, 1-(4-(3-((4,4-difluorocyclohexyl)amino)pyrazin-2-yl)piperazin-1-yl)prop-2-en-1-one]	0.347 µM		19.2 nM	> 20000 nM
C=CC(=O)N1CCN(c2nccnc2Oc2ccc(C(F)(F)F)cc2)CC1 [Example 69, 1-(4-(3-(4-(trifluoromethyl)phenoxy)pyrazin-2-yl)piperazin-1-yl)prop-2-en-1-one]	0.0115 µM		0.9 nM	> 20000 nM
C=CC(=O)N1CCN(c2nccnc2OC2CCC(F)(F)CC2)CC1 [Example 93, 1-(4-{3-[(4,4-difluorocyclohexyl)oxy]pyrazin-2-yl}piperazin-1-yl) prop-2-en-1-one]	0.078 µM		7 nM	> 20000 nM
C=CC(=O)N1CCN(c2nccnc2N2CC(c3ccccc3)C2)CC1 [Example 106, 1-(4-(3-(3-phenylazetidin-1-yl)pyrazin-2-yl)piperazin-1-yl)prop-2-en-1-one]	20 µM		7 nM	> 20000 nM
C=CC(=O)N1CCN(c2ccnc(Nc3ccc(C(F)(F)F)cc3)n2)CC1 [Example 123, 1-[4-(2-{[4-(trifluoromethyl)phenyl]amino}pyrimidin-4-yl)piperazin-1-yl]prop-2-en-1-one]	0.91 µM		279 nM	4870 nM
C=CC(=O)N1CCC(N(C)c2ccnc(Nc3ccc(C(F)(F)F)cc3)n2)CC1 [Example 124, 1-(4-(methyl(2-((4-(trifluoromethyl)phenyl)amino)pyrimidin-4-yl)amino)piperidin-1-yl)prop-2-en-1-one]	4.64 µM		331 nM	4200 nM
C=CC(=O)N1CCN(c2nccc(Nc3ccc(C(F)(F)F)cc3)n2)CC1 [Example 125, 1-[4-(4-{[4-(trifluoromethyl)phenyl]amino}pyrimidin-2-yl)piperazin-1-yl]prop-2-en-1-one]	2.52 µM		258 nM	7060 nM
CC(C)(C#N)N1CCN(c2nccnc2Nc2ccc(C(F)(F)F)cc2)CC1 [Example 176, 2-methyl-2-(4-(3-((4-(trifluoromethyl)phenyl)amino)pyrazin-2-yl)piperazin-1-yl)propanenitrile]	9.95 µM		2500 nM	> 10000 nM
C=CC(=O)N(C)CCOc1nccnc1Nc1ccc(C(F)(F)F)cc1 [Example 191, N-methyl-N-(2-((3-((4-(trifluoromethyl)phenyl)amino)pyrazin-2-yl)oxy)ethyl)acrylamide]	0.047 µM		4.3 nM	10000 nM
C=CC(=O)NCCOc1nccnc1Nc1ccc(C(F)(F)F)cc1 [Example 192, N-(2-((3-((4-(trifluoromethyl)phenyl)amino)pyrazin-2-yl)oxy)ethyl)acrylamide]	1.78 µM		17.9 nM	> 20000 nM
